# Active and inactive are the calls of the source.
# What was measured:
# [1] = cells
# [2] = HEp-2 cell cytotoxicity, dose response, cytotoxicity control for RSV inhibitor project, HTS (AID 2410); assay type: functional; settings: human respiratory syncytial virus
# [3] = target: Induced myeloid leukemia cell differentiation protein Mcl-1 (Homo sapiens, UniProt Q07820); assay type: functional
# [4] = target: Eukaryotic translation initiation factor 4E (Mus musculus, UniProt P63073); experiment: eIF4E–eIF4G protein interaction inhibitors, dose response, biochemical, TR-FRET (AID 855); assay type: functional;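 further: potency for disrupting eIF4E binding to eIF4GI seen as loss of FRET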
# [5] = target: DNA dC->dU-editing enzyme APOBEC-3A (Homo sapiens, UniProt P31941); experiment: Dose Response confirmation of small molecule APOBEC3A DNA Deaminase Inhibitors via a fluorescence-based single-stranded DNA deaminase assay. [Related pubchem assays (depositor defined):AID493011, AID493024]; assay type: functional
# [6] = target: T1, Corticotropin-releasing factor receptor 2/Corticotropin-releasing factor-binding protein (Homo sapiens, UniProt P24387+Q13324); experiment: activators of CRF receptor 2 with binding protein – uHTS hits, confirmation (AID 602473); assay type: functional; settings: read-out: EC50_Mean
# T1 sequence (Q13324 whole entry): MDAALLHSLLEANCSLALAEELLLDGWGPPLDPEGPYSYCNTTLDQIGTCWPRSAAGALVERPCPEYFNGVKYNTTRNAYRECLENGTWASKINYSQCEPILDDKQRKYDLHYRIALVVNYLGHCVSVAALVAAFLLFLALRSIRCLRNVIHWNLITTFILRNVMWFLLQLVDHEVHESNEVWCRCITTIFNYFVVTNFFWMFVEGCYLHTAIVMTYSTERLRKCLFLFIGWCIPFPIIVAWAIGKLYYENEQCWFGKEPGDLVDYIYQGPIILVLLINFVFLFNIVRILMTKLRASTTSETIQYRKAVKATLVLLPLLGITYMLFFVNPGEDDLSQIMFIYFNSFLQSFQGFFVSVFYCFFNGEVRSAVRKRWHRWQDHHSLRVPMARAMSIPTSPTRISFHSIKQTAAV
# T1 sequence (P24387 whole entry): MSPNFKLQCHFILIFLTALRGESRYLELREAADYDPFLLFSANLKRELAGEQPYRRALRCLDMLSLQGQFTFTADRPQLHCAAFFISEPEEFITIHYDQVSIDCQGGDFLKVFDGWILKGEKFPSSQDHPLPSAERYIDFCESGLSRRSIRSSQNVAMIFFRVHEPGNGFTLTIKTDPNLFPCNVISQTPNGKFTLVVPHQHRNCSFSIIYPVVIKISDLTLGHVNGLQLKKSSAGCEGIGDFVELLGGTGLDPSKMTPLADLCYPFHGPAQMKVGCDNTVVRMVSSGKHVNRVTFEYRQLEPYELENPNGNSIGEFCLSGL
# [7] = target: DNA dC->dU-editing enzyme APOBEC-3G (Homo sapiens, UniProt Q9HC16); assay type: functional;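 further: Dose-response counterscreen measuring inhibition of APOBEC3G DNA deaminase activity, run while confirming APOBEC3A inhibitors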
# [8] = target: T2, Bcl-2-like protein 10 (Homo sapiens, UniProt Q9HD36); experiment: displacers of TR3 peptide from Bcl-B, primary screen, selectivity assay for Bfl-1 inhibitor project, biochemical, fluorescence polarization, FITC-TR3 peptide (AID 748);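 further: fluorescence polarization from a fluorescein-labelled TR3 peptide binding purified Bcl-B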
# T2 sequence (Q9HD36 whole entry): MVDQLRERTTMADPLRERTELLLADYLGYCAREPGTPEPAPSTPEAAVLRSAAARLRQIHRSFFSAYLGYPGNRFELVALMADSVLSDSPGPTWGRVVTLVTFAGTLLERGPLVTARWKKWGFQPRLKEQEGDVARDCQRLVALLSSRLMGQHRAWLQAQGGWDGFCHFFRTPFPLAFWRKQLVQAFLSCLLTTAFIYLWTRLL
# [9] = target: T3, Estrogen receptor (Homo sapiens, UniProt P03372);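 further: potency for inhibiting coactivator peptide recruitment to the receptor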
# T3 sequence (P03372 whole entry): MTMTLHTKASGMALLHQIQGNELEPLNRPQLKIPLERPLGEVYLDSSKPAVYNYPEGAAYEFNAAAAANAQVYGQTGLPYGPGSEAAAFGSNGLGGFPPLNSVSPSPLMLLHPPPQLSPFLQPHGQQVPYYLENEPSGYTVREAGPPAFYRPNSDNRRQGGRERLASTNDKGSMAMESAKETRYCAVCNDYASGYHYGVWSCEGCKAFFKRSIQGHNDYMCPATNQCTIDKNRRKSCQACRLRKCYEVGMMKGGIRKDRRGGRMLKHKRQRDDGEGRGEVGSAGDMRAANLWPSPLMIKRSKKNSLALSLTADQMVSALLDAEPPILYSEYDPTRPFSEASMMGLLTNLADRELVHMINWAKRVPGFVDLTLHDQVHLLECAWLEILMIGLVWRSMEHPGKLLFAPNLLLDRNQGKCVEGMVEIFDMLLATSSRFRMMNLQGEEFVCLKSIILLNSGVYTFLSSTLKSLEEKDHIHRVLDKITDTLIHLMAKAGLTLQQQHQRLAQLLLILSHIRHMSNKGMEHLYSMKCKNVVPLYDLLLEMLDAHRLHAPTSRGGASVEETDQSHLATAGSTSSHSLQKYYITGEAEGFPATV
# [10] = target: T4, Heat shock factor protein 1 (Mus musculus, UniProt P38532); experiment: inhibition of MG132-induced HSE-luciferase signal, confirmation, cell-based, NIH3T3, luminescence, dose retest (AID 2382); assay type: functional;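 further: NIH3T3 fibroblasts with HSF1-driven luciferase reporter stressed by proteasome inhibitor MG132; luminescence from HSF1-driven luciferase expression after 8 hours of MG132 stress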
# T4 sequence (P38532 whole entry): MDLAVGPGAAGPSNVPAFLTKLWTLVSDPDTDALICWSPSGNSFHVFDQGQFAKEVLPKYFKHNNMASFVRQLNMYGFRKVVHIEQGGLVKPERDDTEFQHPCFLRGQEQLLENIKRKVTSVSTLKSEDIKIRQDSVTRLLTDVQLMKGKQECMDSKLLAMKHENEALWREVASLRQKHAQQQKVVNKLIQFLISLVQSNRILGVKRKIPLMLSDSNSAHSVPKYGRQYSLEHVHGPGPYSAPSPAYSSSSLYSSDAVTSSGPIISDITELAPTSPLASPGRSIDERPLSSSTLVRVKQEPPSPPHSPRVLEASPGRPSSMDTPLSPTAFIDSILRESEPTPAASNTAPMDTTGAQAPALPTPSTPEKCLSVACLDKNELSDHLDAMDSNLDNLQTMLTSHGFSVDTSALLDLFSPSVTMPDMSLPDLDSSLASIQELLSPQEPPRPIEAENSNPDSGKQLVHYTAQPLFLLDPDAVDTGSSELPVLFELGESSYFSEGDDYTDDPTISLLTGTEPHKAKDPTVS
# [11] = target: Prothrombin (Homo sapiens, UniProt P00734); experiment: Thrombin 1536 HTS Dose Response Confirmation. [Related pubchem assays: 1046 (Thrombin 1536 HTS; hits were confirmed in this assay)]; assay type: functional
# [12] = HepG2 cell cytotoxicity, dose response, cytotoxicity control for Shn3 inhibitor project, CellTiter-Glo, cherry-picked (AID 624134); assay type: functional, cell-based
# [13] = system: INS1; experiment: beta cell apoptosis inhibitors, cytokine rescue, dose response, luminescence, retest (AID 449756); assay type: functional, cell-based; settings: Rattus norvegicus;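 further: cell death triggered by IL-1 beta plus TNF-alpha plus IFN-gamma mixture; protective hits raise ATP signal compared with cytokine alone wells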
# [14] = system: H4; experiment: Luminescence Cell-Based Dose Response HTS to Identify Activators of 5'UTR Stem-Loop Driven Prion Protein mRNA Translation in H4 Neuroglioblastoma Cells. [Related pubchem assays: 1829 (Project Summary), 1814 (Primary HTS)]; assay type: functional; settings: Homo sapiens
# [15] = Luminescence Cell-Based Dose Response HTS to Identify Activators of Luciferase Translation or Activity in H4 […] Cells. [Related pubchem assays: 1829 (Project Summary), 1814 (Primary HTS)]; assay type: functional
# [16] = growth suppression of PTEN-null colon cells, dose response, cell-based, HCT116 PTEN knockout (AID 1047); assay type: functional;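 further: HCT116 colon tumor cells with PTEN knocked out; cells exposed to compound for 60 hours before readout; potency for loss of cell viability measured by luminescence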
# [17] = cells; assay type: functional
# [18] = HepG2 cell cytotoxicity, dose response, cytotoxicity control for non-replicating M. tuberculosis project (AID 489018); assay type: functional; settings: Mycobacterium tuberculosis
# [19] = Vero E6 cell cytotoxicity, dose response, cytotoxicity control for non-replicating M. tuberculosis project, secondary assay (AID 492998); assay type: functional, VeroE6; settings: Vero C1008
# [20] = cytotoxicity toward NIH3T3 fibroblasts, dose response, counter-screen, cell-based, ATP luminescence, mouse fibroblasts (AID 2010); assay type: functional;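 further: cells exposed to compound for about 90 hours before reading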
# [21] = control 3'UTR Renilla luciferase suppression, dose response, counter-screen for Shn3 inhibitor project, cell-based, Clone20-Shn3RL, cherry-picked (AID 624133); assay type: functional
# [22] = THP-1 cell cytotoxicity, dose response, cytotoxicity control for non-replicating M. tuberculosis project (AID 489025); assay type: functional
# [23] = Shn3 3'UTR reporter inhibitors, dose response, cell-based, Clone20 osteoblasts, firefly luciferase, cherry-picked (AID 624132); assay type: functional;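 further: firefly luciferase luminescence from reporter carrying the Shn3 3'UTR in osteoblasts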
# [24] = Luminescence Cell-Based Dose Confirmation HTS to Identify Activators of 5'UTR Stem-Loop Driven Alpha-Synuclein mRNA Translation in H4 Neuroglioblastoma Cells. [Related pubchem assays: 1829 (Project Summary), 1814 (Primary HTS)]; assay type: functional
# [25] = growth suppression of beta-catenin-knockout colon cells, dose response, cell-based, HCT116, human colon tumor (AID 1045); assay type: functional;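 further: HCT116 colon tumor cells with beta catenin knocked out; cells exposed to compound for 60 hours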
# [26] = inhibitors of intracellular T. cruzi replication, confirmation, NIH3T3 host cells, beta-gal luminescence (AID 2044); assay type: functional, cell-based;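 further: intracellular parasites grown in NIH/3T3 mouse fibroblasts as host cells; luminescent beta-galactosidase reporter signal from transgenic T. cruzi replicating inside host cells; inhibitors lower the luminescence signal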
# [27] = target: Glyceraldehyde-3-phosphate dehydrogenase (Homo sapiens, UniProt P04406)
# [28] = target: T5, Alkaline phosphatase, tissue-nonspecific isozyme (Homo sapiens, UniProt P05186); experiment: human TNAP enzyme inhibitors, SAR follow-up, biochemical, luminescent, dose response (AID 1056)
# T5 sequence (P05186 whole entry): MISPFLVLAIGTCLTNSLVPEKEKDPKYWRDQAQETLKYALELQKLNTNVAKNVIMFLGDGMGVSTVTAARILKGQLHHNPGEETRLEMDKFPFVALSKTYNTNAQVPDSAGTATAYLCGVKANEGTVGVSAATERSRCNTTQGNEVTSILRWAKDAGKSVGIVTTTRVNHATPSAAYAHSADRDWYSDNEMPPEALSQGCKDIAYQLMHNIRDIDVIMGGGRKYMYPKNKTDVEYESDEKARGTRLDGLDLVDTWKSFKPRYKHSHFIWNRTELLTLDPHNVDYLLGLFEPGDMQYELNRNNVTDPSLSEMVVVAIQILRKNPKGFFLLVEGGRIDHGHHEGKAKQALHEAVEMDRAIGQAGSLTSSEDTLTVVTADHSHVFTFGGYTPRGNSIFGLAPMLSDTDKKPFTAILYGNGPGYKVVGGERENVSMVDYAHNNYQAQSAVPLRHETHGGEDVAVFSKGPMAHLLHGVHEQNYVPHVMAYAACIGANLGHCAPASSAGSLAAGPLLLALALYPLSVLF
# [29] = target: T6, Ubiquitin-conjugating enzyme E2 N (Homo sapiens, UniProt P61088); assay type: functional;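 further: Dose-response confirmation in a TR-FRET assay detecting UBC13-driven polyubiquitin chain formation, inhibition measured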
# T6 sequence (P61088 whole entry): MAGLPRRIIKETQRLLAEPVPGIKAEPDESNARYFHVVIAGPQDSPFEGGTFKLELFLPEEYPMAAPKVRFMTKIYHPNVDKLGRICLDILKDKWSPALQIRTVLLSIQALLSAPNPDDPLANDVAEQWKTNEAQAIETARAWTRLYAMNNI
# [30] = Luminescence Cell-Based Dose Retest to Confirm Inhibitors of Cancer Stem Cells. [Related pubchem assays (depositor defined):AID2717, AID2721]; assay type: functional; settings: Homo sapiens
# Sequence of Glyceraldehyde-3-phosphate dehydrogenase (P04406 whole entry): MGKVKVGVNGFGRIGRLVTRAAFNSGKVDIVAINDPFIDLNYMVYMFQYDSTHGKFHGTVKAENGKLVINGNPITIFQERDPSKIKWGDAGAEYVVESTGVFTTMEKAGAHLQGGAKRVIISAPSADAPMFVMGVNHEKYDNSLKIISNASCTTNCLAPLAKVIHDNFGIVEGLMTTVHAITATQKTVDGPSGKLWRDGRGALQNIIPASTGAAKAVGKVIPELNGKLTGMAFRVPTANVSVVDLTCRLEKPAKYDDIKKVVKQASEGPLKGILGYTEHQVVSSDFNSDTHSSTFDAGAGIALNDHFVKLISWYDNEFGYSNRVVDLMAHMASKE
# Sequence of DNA dC->dU-editing enzyme APOBEC-3G (Q9HC16 whole entry): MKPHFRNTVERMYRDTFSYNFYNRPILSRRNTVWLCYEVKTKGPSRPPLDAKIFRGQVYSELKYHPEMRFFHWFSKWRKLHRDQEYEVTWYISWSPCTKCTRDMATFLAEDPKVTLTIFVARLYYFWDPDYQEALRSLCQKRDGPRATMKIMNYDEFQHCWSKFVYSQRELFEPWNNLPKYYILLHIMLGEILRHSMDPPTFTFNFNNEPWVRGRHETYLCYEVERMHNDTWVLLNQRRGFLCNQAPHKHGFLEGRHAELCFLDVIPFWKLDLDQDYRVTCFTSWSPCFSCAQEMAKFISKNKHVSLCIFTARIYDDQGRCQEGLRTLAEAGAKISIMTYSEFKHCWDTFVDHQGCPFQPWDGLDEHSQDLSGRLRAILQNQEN
# Sequence of DNA dC->dU-editing enzyme APOBEC-3A (P31941 whole entry): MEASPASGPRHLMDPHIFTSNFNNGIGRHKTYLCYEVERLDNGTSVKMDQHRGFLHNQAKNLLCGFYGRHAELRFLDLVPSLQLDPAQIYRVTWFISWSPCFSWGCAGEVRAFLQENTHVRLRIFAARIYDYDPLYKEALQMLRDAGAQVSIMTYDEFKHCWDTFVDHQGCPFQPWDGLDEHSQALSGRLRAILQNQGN
# Sequence of Eukaryotic translation initiation factor 4E (P63073 whole entry): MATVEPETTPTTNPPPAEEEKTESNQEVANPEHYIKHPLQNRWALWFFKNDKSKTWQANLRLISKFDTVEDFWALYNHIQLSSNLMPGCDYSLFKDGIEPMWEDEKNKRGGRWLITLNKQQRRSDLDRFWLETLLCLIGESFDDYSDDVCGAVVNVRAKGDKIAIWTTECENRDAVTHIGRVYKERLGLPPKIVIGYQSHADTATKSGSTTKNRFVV
# Sequence of Induced myeloid leukemia cell differentiation protein Mcl-1 (Q07820 whole entry): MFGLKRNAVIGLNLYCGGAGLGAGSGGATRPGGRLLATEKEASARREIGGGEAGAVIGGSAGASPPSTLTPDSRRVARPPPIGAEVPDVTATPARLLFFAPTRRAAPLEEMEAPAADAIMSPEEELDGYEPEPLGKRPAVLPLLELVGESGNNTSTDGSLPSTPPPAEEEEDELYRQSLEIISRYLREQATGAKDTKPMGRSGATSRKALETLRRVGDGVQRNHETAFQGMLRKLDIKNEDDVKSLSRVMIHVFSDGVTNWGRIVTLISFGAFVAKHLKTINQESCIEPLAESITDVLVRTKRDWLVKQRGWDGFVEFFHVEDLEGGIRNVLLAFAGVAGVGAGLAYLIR
smiles,measurement,setting,value
COC(=O)c1ccc(Cn2c(CN3CCOCC3)nc3ccccc3c2=O)o1,IC50,[1],17.4 µM (active)
Cc1ccc(S(=O)(=O)N2CCN(CCO)CC2)cc1-c1nnc2c3ccccc3c(C)nn12,IC50,[1],> 50 µM (active)
COc1ccccc1-n1c(C)cc(/C=C2\C(=N)N3N=C(CC(=O)N4CCOCC4)SC3=NC2=O)c1C,IC50,[1],24.1 µM (active)
same,CC50,[2],38.3 µM (active)
COc1ccc(NC(C)C(=O)Nc2ccc(C#N)cc2)cc1Cl (stereo not given),IC50,[3],35.9 µM (not active)
same,IC50,[4],> 64 µM (inactive)
COC(=O)Cn1cc(/C=C/c2cc[n+](C)cc2)c2ccccc21,IC50,[5],3.05 µM (active)
same,EC50,[6],8.34 µM (active)
same,IC50,[7],3.58 µM (active)
COC(=O)CNc1c(-c2ccccn2)nc2ccc(Br)cn12,IC50,[8],> 12.5 µM (inactive)
COc1ccccc1N1CCN(C(=O)c2cc3c(s2)CCC3)CC1,IC50,[9],5.19 µM (active)
same,IC50,[8],36.6 µM (active)
O=C(COc1ccccc1C(=O)O)Nc1ccc(SC(F)F)cc1,EC50,[10],> 195 µM (not active)
same,IC50,[11],> 50 µM (not active)
Cc1cc(C)c2c(-n3cccc3)c(C(=O)NNS(=O)(=O)c3ccc(Cl)cc3)sc2n1,IC50,[1],40.2 µM (active)
same,CC50,[2],37.1 µM (active)
CCN1CCN(S(=O)(=O)c2ccc(Cl)c(C(=O)N(C)C(c3ccccc3)c3ccccc3)c2)CC1,IC50,[5],4.6 µM (active)
same,IC50,[7],5.67 µM (active)
CN(C)CC(C(=O)c1ccccc1)c1ccccc1 (stereo not given),AC50,[12],19.2 µM (active)
same,AC50,[13],7.43 µM (active)
same,EC50,[14],> 120 µM (not active)
same,EC50,[15],> 120 µM (not active)
same,EC50,[16],5.35 µM (active)
same,IC50,[17],4.64 µM (active)
same,CC50,[18],12.9 µM (active)
same,CC50,[19],10.6 µM (active)
same,EC50,[20],> 30 µM (not active)
same,AC50,[21],8.54 µM (active)
same,CC50,[22],7.72 µM (active)
same,AC50,[23],2.8 µM (active)
same,EC50,[24],> 120 µM (not active)
same,EC50,[25],2.99 µM (active)
same,EC50,[26],3.6 µM (active)
c1cncc(-c2cnc3ccccc3c2)c1,IC50,[27],> 100 µM (not active)
same,IC50,[28],> 100 µM (inactive)
COc1ccc2nc(C)cc(N/N=C/c3ccccc3)c2c1,AC50,[13],2.68 µM (active)
same,IC50,[29],> 20 µM (inactive)
same,IC50,[17],0.52 µM (active)
same,CC50,[18],9.19 µM (active)
same,CC50,[19],6.15 µM (active)
same,CC50,[22],10.9 µM (active)
same,AC50,[30],5.6 µM (active)
Cc1ccccc1N=Nc1c(C)[nH]n(-c2ccccc2)c1=O,IC50,[4],50 µM (inactive)
Cn1cnc(-c2cccnc2)c1,IC50,[27],> 100 µM (not active)
same,IC50,[28],> 100 µM (inactive)

# From ChEMBL document CHEMBL1201862, “PubChem BioAssay data set” (2004)
